Laboratory results reported in US20110045101A1, “FUNGICIDAL SUBSTITUTED AZOLES” (E.I. Du Pont De Nemours and Company, priority 2009, published 2011).
Marks after values point to notes of the source that are not given here.

Legend:
Format in all cases: in vivo
Settings in all cases: 100 = 100% disease control
[1] = test system: Puccinia recondita f. sp. tritici; assay: Test I: wheat leaf rust on wheat seedlings, sprayed the day before inoculation, visual disease rating
Procedure, shortened: (§1)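 Compounds were dissolved in acetone (3% of final volume), then suspended in 50/50 acetone/purified water with 250 ppm Trem® 014 surfactant. Suspensions at 200 ppm (some at 40 ppm) were sprayed to run-off, 200 ppm being equivalent to 500 g/ha.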

Septoria tritici = assay: Test G: wheat leaf blotch on wheat seedlings, sprayed the day before inoculation, visual disease rating
Procedure, shortened: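 Seedlings receive a protective spray of test suspension in acetone/water carrying 250 ppm surfactant, mostly at 200 ppm and at 40 ppm where marked. They are inoculated the next day, kept saturated at 24° C for 48 h, then held at 20° C for 19 days before visual scoring.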

Alternaria solani = assay: Test D: tomato early blight, sprayed the day before inoculation, visual disease rating
Procedure, shortened: as §1

[2] = test system: Erysiphe graminis f. sp. tritici; assay: Test J: wheat powdery mildew on wheat seedlings, sprayed the day before inoculation, visual disease rating
Procedure, shortened: as §1

Botrytis cinerea = assay: Test C: tomato Botrytis on tomato seedlings, sprayed the day before inoculation, visual disease rating
Procedure, shortened: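 Compounds were dissolved in acetone (3% of final volume), then suspended in 50/50 acetone/purified water containing 250 ppm polyhydric alcohol ester surfactant. Suspensions were sprayed to run-off on tomato seedlings at 200 ppm, equivalent to 500 g/ha, or at 40 ppm where marked.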

Septoria nodorum = assay: Test F: wheat glume blotch on wheat seedlings, sprayed the day before inoculation, visual disease rating
Procedure, shortened: as §1

[3] = 40 ppm (marked *), 0 = no control
[4] = 200 ppm, 0 = no control relative to controls

| Compound | Test I disease control rating ([1]; 200 ppm, 0 = no control) | Test G disease control rating (Septoria tritici; 200 ppm, 0 = no control) | Test D disease control rating (Alternaria solani; 200 ppm, 0 = no control) | Test J disease control rating ([2]; 200 ppm, 0 = no control) | Test C disease control rating (Botrytis cinerea; 200 ppm, 0 = no control) | Test F disease control rating (Septoria nodorum; 200 ppm, 0 = no control) | Test I disease control rating [1, 4] | Test G disease control rating (Septoria tritici; [4]) | Test D disease control rating (Alternaria solani; [4]) | Test J disease control rating [2, 4] | Test C disease control rating (Botrytis cinerea; [4]) | Test F disease control rating (Septoria nodorum; [4]) | further results |
| --- | --- | --- | --- | --- | --- | --- | --- | --- | --- | --- | --- | --- | --- |
| COc1cc(F)c(-c2c(Cl)nc(Cl)n2-c2cccc(F)c2)c(F)c1 [compound 257] | 100% | 95% | 100% | 100% | 100% | 99% |  |  |  |  |  |  |  |
| Cc1nc(Cl)c(Cc2c(F)cccc2F)n1-c1ccc(Cl)cc1 [compound 258] | 97% | 87% | 0% | 78% | 99% | 42% |  |  |  |  |  |  |  |
| Fc1cc(-n2c(Cl)nc(CCl)c2-c2ccccc2F)ccc1Cl [compound 259] | 82% | 63% | 16% | 93% | 99% | 0% |  |  |  |  |  |  |  |
| Cc1nc(Cl)n(-c2ccc(Cl)c(F)c2)c1-c1ccccc1F [compound 260] | 94% | 92% | 95% | 99% | 100% | 0% |  |  |  |  |  |  |  |
| COc1cc(F)c(-c2c(C)nc(Cl)n2-c2ccc(Cl)c(F)c2)c(F)c1 [compound 261] | 100% | 95% | 100% | 100% | 99% | 100% |  |  |  |  |  |  |  |
| Cc1nc(Cl)n(-c2ccc(Cl)c(F)c2)c1-c1c(Cl)cncc1Cl [compound 262] | 100% | 96% | 99% | 100% | 99% | 69% |  |  |  |  |  |  |  |
| COc1cc(F)c(-c2c(C)nc(Cl)n2-c2ccc(Cl)nc2)c(F)c1 [compound 263] | 100% | 95% | 100% | 100% | 99% | 100% |  |  |  |  |  |  |  |
| Cc1nc(Cl)n(-c2ccc(Cl)c(F)c2)c1-c1ccccn1 [compound 264] | 98% | 95% | 88% | 99% | 99% | 0% |  |  |  |  |  |  |  |
| COc1cc(F)c(-n2cnc(Cl)c2-c2ccc(Cl)cc2)c(F)c1 [compound 277] |  |  |  |  |  |  |  |  |  |  |  |  | Test I disease control rating [1, 3]: 88* %; Test G disease control rating (Septoria tritici; [3]): 89* %; Test D disease control rating (Alternaria solani; [3]): 0* %; Test J disease control rating [2, 3]: 94* %; Test C disease control rating (Botrytis cinerea; [3]): 99* %; Test F disease control rating (Septoria nodorum; [3]): 0* % |
| COc1ccc(F)c(-c2c(Cl)nc(Br)n2-c2cccc(F)c2)c1F [compound 278] | 100% | 95% | 100% | 100% | 99% | 100% |  |  |  |  |  |  |  |
| COc1ccc(F)c(-c2c(Cl)nc(Cl)n2-c2cccc(F)c2)c1F [compound 279] | 100% | 93% | 100% | 100% | 100% | 100% |  |  |  |  |  |  |  |
| COc1ccc(F)c(-c2c(Cl)nc(Br)n2-c2ccc(C)cc2)c1F [compound 281] | 100% | 96% | 100% | 100% | 100% | 97% |  |  |  |  |  |  |  |
| COc1cc(F)c(-n2c(Cl)nc(Cl)c2-c2ccc(Cl)cc2)c(F)c1 [compound 297] |  |  |  |  |  |  |  |  |  |  |  |  | Test I disease control rating [1, 3]: 99* %; Test G disease control rating (Septoria tritici; [3]): 94* %; Test D disease control rating (Alternaria solani; [3]): 100* %; Test J disease control rating [2, 3]: 100* %; Test C disease control rating (Botrytis cinerea; [3]): 99* %; Test F disease control rating (Septoria nodorum; [3]): 99* % |
| Cc1nc(C)n(-c2ccc(Cl)cc2)c1-c1c(F)ccc(F)c1Cl [compound 388] |  |  |  |  |  |  | 100% | 99% | 100% | 100% | 99% | 60% |  |
| Cc1nc(Cl)n(-c2ccc(Cl)c(F)c2)c1-c1c(F)ccc(F)c1F [compound 389] |  |  |  |  |  |  | 99% | 91% | 100% | 98% | 98% | 0% |  |
| COc1cc(F)c(-c2c(Cl)nc(C)n2-c2ccccc2)c(F)c1C [compound 439] |  |  |  |  |  |  | 100% | 94% | 100% | 100% | 97% | 95% |  |
| Fc1ccc(F)c(-c2c(Cl)nc(Br)n2-c2ccc(Cl)c(Cl)c2)c1F [compound 440] |  |  |  |  |  |  | 98% | 95% | 100% | 99% | 99% | 98% |  |
| CCc1ccc(-n2c(Br)nc(Cl)c2-c2c(F)ccc(OC)c2F)cc1 [compound 441] |  |  |  |  |  |  | 97% | 97% | 99% | 99% | 97% | 0% |  |
| CCc1ccc(-n2c(Cl)nc(Cl)c2-c2c(F)ccc(OC)c2F)cc1 [compound 442] |  |  |  |  |  |  | 99% | 95% | 99% | 100% | 99% | 0% |  |
| COc1ccc(F)c(-c2c(Cl)nc(Br)n2-c2ccc(I)cc2)c1F [compound 443] |  |  |  |  |  |  | 89% | 97% | 99% | 100% | 99% | 99% |  |
| COc1ccc(F)c(-c2c(Cl)nc(Cl)n2-c2ccc(I)cc2)c1F [compound 444] |  |  |  |  |  |  | 95% | 98% | 100% | 99% | 99% | 100% |  |
| Cc1nc(Br)n(-c2c(F)cc(F)cc2F)c1-c1ccc(Cl)cc1 [compound 445] |  |  |  |  |  |  |  | 95% |  |  |  |  | Test I disease control rating [1, 3]: 97* %; Test D disease control rating (Alternaria solani; [3]): 100* %; Test J disease control rating [2, 3]: 98* %; Test C disease control rating (Botrytis cinerea; [3]): 97* %; Test F disease control rating (Septoria nodorum; [3]): 92* % |
| Cc1nc(Cl)n(-c2c(F)cc(F)cc2F)c1-c1ccc(Cl)cc1 [compound 446] |  |  |  |  |  |  |  |  |  |  |  |  | Test I disease control rating [1, 3]: 68* %; Test G disease control rating (Septoria tritici; [3]): 95* %; Test D disease control rating (Alternaria solani; [3]): 100* %; Test J disease control rating [2, 3]: 91* %; Test C disease control rating (Botrytis cinerea; [3]): 96* %; Test F disease control rating (Septoria nodorum; [3]): 0* % |
